Tested on: Caco2 cells
Experiment: Folate uptake assay (3H-folate uptake in Caco2 cells)
Format: cell-based, human
Conditions: compound 0.1 μM
Protocol: The Caco2 cells were subjected to folate uptake test in a manner similar to that described in the glucose uptake assay in Example 1 above. In the folate uptake test, the Caco2 cells were pretreated with the culture medium containing 5% FBS and purified ginsenosides at a concentration of […] for 2 days before the cells were cultured in a folate uptake buffer (Hank's balanced salt solution, supplemented with 0.14 g/L CaCl2, 0.1 g/L MgCl2, and 0.1 g/L MgSO4, pH 6.0) for 1 hour. The buffer was then aspirated, and uptake was initiated by adding 0.2 mL of fresh folate uptake buffer containing 2 μCi/mL radioactive folate (3,5,7,9-^3H-folic acid, 25 mCi/mmol, ARC) and cold, unlabeled folate giving a final folate concentration of 5 μM. Folate uptake was terminated by removing the uptake buffer at designated time intervals. The cells were then washed three times with ice-cold PBS and lysed by adding 0.2 mL of 0.2 N NaOH, followed by incubating at 65° C. for 20 min. Intracellular uptake of ^3H-folate was determined by transferring 20 μL of the cell lysate to the filter-bottomed UniFilter plates (Perkin-Elmer) and counting as described previously in Example 1. The amount of folate accumulated in the cells was calculated and normalized to protein concentration, and uptake rate was expressed as picomoles of folate per minutes per milligram of cell protein (pmol/min/mg). Protein concentration was determined by a standard Bicinchoninic acid (BCA) protein assay as described above.

CC(C)=CCC[C@](C)(O[C@@H]1O[C@H](CO)[C@@H](O)[C@H](O)[C@H]1O)[C@H]1CC[C@]2(C)[C@@H]1[C@H](O)C[C@@H]1[C@@]3(C)CC[C@H](O)C(C)(C)[C@@H]3[C@@H](O[C@@H]3O[C@H](CO)[C@@H](O)[C@H](O)[C@H]3O)C[C@]12C [Rg1, ginsenoside Rg1]
Percentage (folate uptake, control = 100): 62.64% | folate uptake versus non-treated control (in words, FIG. 5): decreased | Transport rate (folate uptake) (2 days pretreatment, 5 μM folate, pH 6.0): 1.0780 ± 0.1534 pmol/mg/min

— patent publication US20090181904A1, “METHOD FOR REGULATING NUTRIENT ABSORPTION WITH GINSENOSIDES” (priority 2005, published 2009)
